Experimental data taken from patent US12390470B2, “1-methylxanthine-based bioactive composition and method of use thereof” (Ingenious Ingredients, LP, priority 2021, dated 2025).
Several values for one entry are separate records, joined by “and”; a condition that tells them apart may be missing. Equal values may be shown once.

Key:
[1] = test system: participants; experiment: Resting heart rate, crossover vs caffeine; format: in vivo, human
Description: All supplements were orally ingested with 8 fluid ounces of cold tap water.

[2] = test system: glutathione; experiment: Glutathione level in young and old rats; format: in vivo
Experimental: (§1) Twenty-four young (6-8 Week) and twenty-four old (14-16 Months) Swiss Albino Wistar rats were housed in an animal room at a constant temperature (22±3° C.) and humidity (30%-70%) under a 12:12 h light-dark cycle with standard laboratory diet (Purina 5L79, Rat and Mouse 18% protein; PMI Nutrition International, Brentwood, MO, USA). Distilled water was provided ad libitum. All animal experiments were reviewed and approved by the Institutional Animal Ethical Committee (IAEC) of Radiant Research Services Pvt. Ltd (Bangalore, India). All research was conducted in accordance with the guidelines of the committee for the purpose of control and supervision of experiments on animals.
After one week of acclimation, the animals were randomly divided by body weight and age into six groups (n=8 per group in each test) for oral treatment once a day, at approximately same time each day (±1 hour), for 10 consecutive days: (1) vehicle control or (2) 1-methylxanthine or (3) 1-methylxanthine plus paraxanthine. The dose administered to the rat was calculated using US Food and Drug Administration for human equivalence doses (HED), assuming a human weight of 60 kg. […] Food intake was monitored daily while water intake was ad libitum. […] Body weight was recorded weekly. […]

[3] = test system: male Swiss Albino mice; experiment: Treadmill endurance test; format: in vivo
Experimental: as §1, with “8-week-old male” for “young (6-8 Week) and twenty-four old (14-16 Months)”, “mice” for “Wistar rats”
After one week of acclimation, the animals were randomly divided by body weight into three groups (n=8 per group in each test) for oral treatment once a day, at approximately same time each day (±1 hour), for 28 consecutive days: (1) vehicle control or (2) 1-methylxanthine or (3) 1-methylxanthine plus paraxanthine. The dose administered to the mice was calculated using US Food and Drug Administration for human equivalence doses (HED), assuming a human weight of 60 kg. The following HED was used in this study: 100 mg 1-methylxanthine (Ingenious Ingredients, L.P Lewisville, TX, USA; mouse dose: 20.5 mg/kg bw/day), or 100 mg 1-methylxanthine (Ingenious Ingredients, L.P Lewisville, TX, USA; mouse dose: 20.5 mg/kg bw/day) plus 100 mg paraxanthine (ENFINITY™, Ingenious Ingredients, L.P Lewisville, TX, USA; mouse dose: 20.5 mg/kg bw/day). 0.5% Carboxy Methyl Cellulose sodium was used as vehicle and the test item formulations were prepared daily. Dosing was conducted via oral gavage using disposable polypropylene syringes with sterilized stainless steel gavage tubes. Food intake was monitored daily while water intake was ad libitum. BW was recorded weekly. […]
On 28th day of each respective treatment, all animals were subjected to a muscle endurance test. […] Distance traveled (cm) was measured as a marker of exercise performance.

[4] = test system: female wistar rats; details: rat, in vivo, 14 days
Experimental: An acute oral toxicity study of 1-Methylxanthine) was conducted in female wistar rats in accordance with OECD 423 guidelines. Rats were administered a single dose of 2,000 mg/kg orally and then observed individually for the first four hours, then over a period of 24 hours and once daily for 14 days. General behavior, adverse effects and mortality were observed throughout the experimental period. Body weights were recorded on test day 0 (prior to administration), day 3, day 7 and day 14. All the animals were necropsied and examined macroscopically. All the surviving animals had gained body weight by day 14 as compared to day 0. […] Based on the results, the median lethal dose of test substance in female rats after single oral treatment is 2,000 mg/kg body weight and is classified as category 5 and safe.

SMILES: Cn1c(=O)[nH]c2nc[nH]c2c1=O [1-methylxanthine, 1-Methyl-3H-purine-2,6-dione]
- heart rate change from baseline ([1]; 200 mg oral): did not increase
- heart rate reduced in comparison to CA ([1]; 200 mg oral): 3%
- Resting Heart Rate MEAN (30-180) ([1]; Average): 57.9 bpm
- Resting Heart Rate Mean Δ from 0 ([1]; Average): −9.6 bpm
- Resting Heart Rate MEAN (30-180) ([1]; Person one): 53.2 bpm
- Resting Heart Rate Mean Δ from 0 ([1]; Person one): −11.8 bpm
- Resting Heart Rate Δ vs. CA ([1]; Person one): −2.0 bpm
- Resting Heart Rate ([1]; Person one, 30 min): 63 bpm
- Resting Heart Rate ([1]; Person one, 60 min): 54 bpm
- Resting Heart Rate ([1]; Person one, 90 min): 49 bpm
- Resting Heart Rate ([1]; Person one, 120 min): 45 bpm
- Resting Heart Rate ([1]; Person one, 180 min): 55 bpm
- Resting Heart Rate ([1]; Person one, time 0, 200 mg oral): 65 bpm
- Resting Heart Rate MEAN (30-180) ([1]; Person two): 62.6 bpm
- Resting Heart Rate Mean Δ from 0 ([1]; Person two): −2.4 bpm
- Resting Heart Rate Δ vs. CA ([1]; Person two): −1.0 bpm
- Resting Heart Rate ([1]; Person two, 30 min): 61 bpm
- Resting Heart Rate ([1]; Person two, 60 min): 60 bpm
- Resting Heart Rate ([1]; Person two, 90 min): 65 bpm
- Resting Heart Rate ([1]; Person two, 120 min): 60 bpm
- Resting Heart Rate ([1]; Person two, 180 min): 62 bpm
- Resting Heart Rate ([1]; Person two, time 0, 200 mg oral): 65 bpm
- glutathione levels ([2]; old rats): 25.29 ± 0.93 µg/mL
- glutathione levels ([2]; young rats, listed as 1-MX): 28.57 ± 1.36 µg/mL and 28.57 ± 1.65 µg/mL
- Distance travelled on treadmill ([3]; baseline): 269.6±33.0 cm
- changes in treadmill performance greater than control ([3]; baseline to day 28): 10.0%
- Distance travelled on treadmill ([3]; day 28, oral 20.5 mg/kg bw/day each, 28 days): 1,641.3±74.6 cm
- toxicity classification [4]: category 5
- median lethal dose ([4]; po): 2,000 mg/kg body weight
